{"source": "patent US6264935A", "about": "“Ophthalmic composition containing a carbonic anhydrase inhibitor and xanthan gum” (priority 1996, dated 2001)", "key": {"[1]": {"settings": "background; result in words; cited from earlier work"}, "[2]": {"settings": "rabbit, in vivo"}}, "note": "Entries after “also recorded” stand apart in the source; their conditions may differ."}
{"compound": "CC[C@@H]1C(=O)OC[C@@H]1Cc1cncn1C", "note": "[pilocarpine]", "values": [{"measurement": "reduction of intraocular pressure", "setting": "[1]", "result": "reduce intraocular pressure"}, {"measurement": "side effects / local effects", "setting": "[1]", "result": "undesirable local effects"}]}
{"compound": "CC(C)(C)NC[C@H](O)COc1nsnc1N1CCOCC1", "note": "[timolol]", "values": [{"measurement": "duration of activity and loss of effect", "setting": "[1]", "result": "long duration of activity; also recorded: minimal loss of effect with increased duration of dosing"}, {"measurement": "reduction of intraocular pressure", "setting": "[1]", "result": "found to reduce intraocular pressure"}, {"measurement": "side effects / local effects", "setting": "[1]", "result": "devoid of many unwanted side effects associated with pilocarpine; also recorded: devoid of local anaesthetic properties"}]}
{"compound": "cyclodextrin", "values": [{"measurement": "change in ocular bioavailability compared with the TRUSOPT formulation", "setting": "[2]", "result": "only minor changes in bioavailability"}]}
{"compound": "polyvinyl alcohol", "values": [{"measurement": "change in ocular bioavailability compared with the TRUSOPT formulation", "setting": "[2]", "result": "only minor changes in bioavailability"}]}
